The values that follow come from US12233036B2, “Inhibitors of autophagy and DCAR-1 as novel anthelmintic agents” (FLORIDA ATLANTIC UNIVERSITY BOARD OF TRUSTEES, priority 2019, dated 2025).

This test deals with wild type C. elegans. Kind of test: Pheromone-induced dauer formation in wild type C. elegans in the presence of DHCA. To be noted: wild type (N2) C. elegans treated by pheromone, pheromone alone around 20% dauer. It is filed as in vivo. How it is done: FIG. 5 is a bar graph showing that dihydrocaffeic acid (DHCA) is the ligand for DCAR-1 GPCR. DHCA is the food signal that competes with the dauer-inducing pheromone to suppress dauer formation. (*P<0.01, t-test, N2 treated with 0 nM DHCA compared to N2 treated with 25 nM DHCA and N2 treated with 25 nM DHCA compared to N2 treated with 100 nM DHCA. ns, no statistical significant difference.) Recovery of dauer larvae requires the presence of food. G protein-coupled receptors (GPCRs) detect molecules such as food odors and activate internal signal transduction pathways. We identified a GPCR, DCAR-1, which is involved in detection of food signals in C. elegans. […] The recovery percentage of daf-2 and daf-7 mutant dauer larvae decreased by 25% when dcar-1 is mutated. Dihydrocaffeic acid (DHCA) is the ligand for DCAR-1. […] When wild type C. elegans was treated by pheromone, around 20% of animals entered dauer. However, in the presence of 25 nM DHCA, the percentage of dauer was decreased to 5%. […] Thus, DCAR-1 inhibitors act to block detection of foods signals by infective nematode parasites and to suppress the growth of parasites to adults.

As to `O=C(O)CCc1ccc(O)c(O)c1` [DHCA, Dihydrocaffeic acid], the percentage of dauer (25 nM DHCA) came out at 5% and the percentage of dauer entry (100 nM DHCA) is “none of animals formed dauer”.
